Values after ≈ are worked out from the molar mass of the structure shown. One block for each molecule: values may come before it.
Legend:
[1] = tested on: HT-29; experiment: Cytotoxicity against human HT-29 cells assessed as induction of cell death after 72 hrs by Alamar blue assay; assay type: functional; conditions: HT-29, 72 h, read-out: LD50 (the source's name)
[2] = tested on: T47D; experiment: Cytotoxicity against human T47D cells assessed as induction of cell death after 72 hrs by Alamar blue assay; assay type: functional; conditions: read-out: LD50 (the source's name)
[3] = tested on: PPC-1; experiment: Cytotoxicity against human PPC1 cells assessed as induction of cell death after 72 hrs by Alamar blue assay; assay type: functional; conditions: PPC-1, 72 h, read-out: LD50 (the source's name)
[4] = Cytotoxicity against human MDA468 cells assessed as induction of cell death after 72 hrs by Alamar blue assay; assay type: functional; conditions: MDA-MB-468, 72 h, read-out: LD50 (the source's name)
[5] = tested on: LP-1; experiment: Cytotoxicity against human LP-1 cells assessed as induction of cell death after 72 hrs by Alamar blue assay; assay type: functional; conditions: LP-1, 72 h, read-out: LD50 (the source's name)
[6] = Inhibition of GST-tagged human recombinant UAE-catalyzed UAE-Ub thioester intermediate formation after 30 mins by fluorescence assay
[7] = Cytotoxicity against human U226 cells assessed as induction of cell death after 72 hrs by Alamar blue assay; assay type: functional; conditions: U226, 72 h, read-out: LD50 (the source's name)
[8] = Cytotoxicity against human Leukemia cells assessed as induction of cell death after 72 hrs by Alamar blue assay; assay type: functional; conditions: read-out: LD50 (the source's name)
[9] = Cytotoxicity against human OVACR3 cells assessed as induction of cell death after 72 hrs by Alamar blue assay; assay type: functional; conditions: OVACR3, 72 h, read-out: LD50 (the source's name)
[10] = tested on: HeLa; experiment: Cytotoxicity against human HeLa cells assessed as induction of cell death after 72 hrs by Alamar blue assay; assay type: functional; conditions: read-out: LD50 (the source's name)
[11] = Cytotoxicity against human KMS11 cells assessed as induction of cell death after 72 hrs by Alamar blue assay; assay type: functional; conditions: KMS-11, 72 h, read-out: LD50 (the source's name)
[12] = tested on: DU-145; experiment: Cytotoxicity against human DU145 cells assessed as induction of cell death after 72 hrs by Alamar blue assay; assay type: functional; conditions: DU-145, 72 h, read-out: LD50 (the source's name)
[13] = tested on: FaDu; experiment: Cytotoxicity against human FADU cells assessed as induction of cell death after 72 hrs by Alamar blue assay; assay type: functional; conditions: read-out: LD50 (the source's name)
[14] = Inhibition of N-terminal GST-tagged human UAE-catalyzed UAE-Ub thioester intermediate formation expressed in HI5 insect cells after 5 mins by SDS-PAGE analysis
[15] = Inhibition of N-terminal GST-tagged human UAE-catalyzed [32P]-AMP:[a-32P]-ATP exchange expressed in HI5 insect cells by TLC analysis
[16] = Inhibition of UAE-catalyzed UAE-Ub thioester intermediate formation in human RPE cells by immunoblotting analysis; assay type: cell-based
[17] = Inhibition of UAE (unknown origin)-catalyzed UAE-Ub intermediate formation; set-up: species or system Homo sapiens
[18] = Inhibition of mouse recombinant His6-tagged UAE-catalyzed UAE-Ub thioester intermediate formation expressed in insect cells by SDS-PAGE analysis
[19] = Inhibition of N-terminal GST-tagged human UAE-catalyzed UAE-Ub thioester intermediate formation expressed in HI5 insect cells after 30 mins by immunoblotting analysis
[20] = Inhibition of human UAE-catalyzed E1-E2 transthiolation reaction expressed in Sf9 insect cells after 90 mins by TR-FRET assay
[21] = biological target: T1, Ubiquitin-like modifier-activating enzyme 7 (Homo sapiens, UniProt P41226); experiment: Inhibition of UBA7 (unknown origin) in presence of ATP
T1 sequence (P41226 whole entry): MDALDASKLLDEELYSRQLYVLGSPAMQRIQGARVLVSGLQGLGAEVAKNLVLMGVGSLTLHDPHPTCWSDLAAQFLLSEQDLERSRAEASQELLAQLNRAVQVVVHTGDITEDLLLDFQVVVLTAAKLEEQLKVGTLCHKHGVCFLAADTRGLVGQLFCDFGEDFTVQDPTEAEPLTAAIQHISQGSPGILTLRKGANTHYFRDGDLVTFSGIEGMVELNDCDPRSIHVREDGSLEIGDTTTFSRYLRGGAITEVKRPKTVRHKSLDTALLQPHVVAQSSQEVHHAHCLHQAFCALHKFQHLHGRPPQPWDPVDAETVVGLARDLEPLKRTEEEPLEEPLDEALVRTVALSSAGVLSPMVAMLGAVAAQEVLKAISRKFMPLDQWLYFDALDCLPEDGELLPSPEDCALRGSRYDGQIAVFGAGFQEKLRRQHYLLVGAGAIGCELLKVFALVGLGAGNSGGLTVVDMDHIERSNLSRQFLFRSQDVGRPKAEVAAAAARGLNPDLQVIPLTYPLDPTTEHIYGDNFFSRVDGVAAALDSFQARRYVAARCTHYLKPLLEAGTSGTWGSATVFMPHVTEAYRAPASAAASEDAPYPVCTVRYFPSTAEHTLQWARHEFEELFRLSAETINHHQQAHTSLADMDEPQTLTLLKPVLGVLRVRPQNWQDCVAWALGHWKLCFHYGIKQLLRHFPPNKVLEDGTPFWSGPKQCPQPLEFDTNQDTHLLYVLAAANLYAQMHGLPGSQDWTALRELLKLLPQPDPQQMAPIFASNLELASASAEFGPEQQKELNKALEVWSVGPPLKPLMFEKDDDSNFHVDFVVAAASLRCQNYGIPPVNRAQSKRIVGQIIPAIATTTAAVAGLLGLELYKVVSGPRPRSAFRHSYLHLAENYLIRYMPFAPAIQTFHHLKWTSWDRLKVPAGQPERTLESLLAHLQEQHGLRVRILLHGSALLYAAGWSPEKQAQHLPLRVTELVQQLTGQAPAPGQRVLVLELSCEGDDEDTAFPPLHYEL

[22] = biological target: T2, SUMO-activating enzyme subunit 1 (Homo sapiens, UniProt Q9UBE0); experiment: Inhibition of SAE (unknown origin) in presence of ATP
T2 sequence (Q9UBE0 whole entry): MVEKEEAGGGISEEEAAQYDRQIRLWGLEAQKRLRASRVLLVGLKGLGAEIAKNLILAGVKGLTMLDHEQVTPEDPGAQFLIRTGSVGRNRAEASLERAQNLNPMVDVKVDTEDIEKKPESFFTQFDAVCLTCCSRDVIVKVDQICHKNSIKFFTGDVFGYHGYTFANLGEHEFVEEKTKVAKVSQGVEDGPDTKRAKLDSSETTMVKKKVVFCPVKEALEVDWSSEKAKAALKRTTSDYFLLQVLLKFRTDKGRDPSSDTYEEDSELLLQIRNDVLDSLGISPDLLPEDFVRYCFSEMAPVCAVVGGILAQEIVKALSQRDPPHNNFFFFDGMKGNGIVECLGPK

[23] = biological target: T3, Ubiquitin-like modifier-activating enzyme 6 (Homo sapiens, UniProt A0AVT1); experiment: Inhibition of UBA6 (unknown origin) in presence of ATP
T3 sequence (A0AVT1 whole entry): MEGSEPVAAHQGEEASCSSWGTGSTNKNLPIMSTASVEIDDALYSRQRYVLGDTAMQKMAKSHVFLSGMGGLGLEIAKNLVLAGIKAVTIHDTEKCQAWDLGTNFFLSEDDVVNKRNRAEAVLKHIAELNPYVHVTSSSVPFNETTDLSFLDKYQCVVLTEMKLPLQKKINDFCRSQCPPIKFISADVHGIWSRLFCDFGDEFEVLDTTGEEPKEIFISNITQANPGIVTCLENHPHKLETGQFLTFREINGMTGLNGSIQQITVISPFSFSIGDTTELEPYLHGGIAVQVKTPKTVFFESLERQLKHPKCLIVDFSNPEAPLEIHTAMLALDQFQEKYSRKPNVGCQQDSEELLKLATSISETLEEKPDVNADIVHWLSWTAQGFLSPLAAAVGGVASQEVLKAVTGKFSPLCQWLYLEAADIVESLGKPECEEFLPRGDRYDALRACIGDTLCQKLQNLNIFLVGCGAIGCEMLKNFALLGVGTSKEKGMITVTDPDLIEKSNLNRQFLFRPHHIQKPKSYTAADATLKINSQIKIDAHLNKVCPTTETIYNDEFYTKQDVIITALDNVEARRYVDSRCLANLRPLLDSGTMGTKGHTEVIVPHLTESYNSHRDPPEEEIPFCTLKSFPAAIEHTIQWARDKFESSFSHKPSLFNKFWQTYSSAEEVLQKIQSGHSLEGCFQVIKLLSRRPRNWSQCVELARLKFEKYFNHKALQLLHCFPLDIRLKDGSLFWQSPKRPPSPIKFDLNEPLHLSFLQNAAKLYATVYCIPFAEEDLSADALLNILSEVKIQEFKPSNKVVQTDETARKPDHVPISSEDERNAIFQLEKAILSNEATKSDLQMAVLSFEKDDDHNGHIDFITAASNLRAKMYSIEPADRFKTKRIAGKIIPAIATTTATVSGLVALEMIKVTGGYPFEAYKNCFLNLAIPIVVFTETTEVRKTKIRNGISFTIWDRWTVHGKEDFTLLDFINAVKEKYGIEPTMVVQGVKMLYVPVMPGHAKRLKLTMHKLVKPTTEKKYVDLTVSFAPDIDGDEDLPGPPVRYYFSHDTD

[24] = Inhibition of UAE (unknown origin) in presence of ATP; set-up: species or system Homo sapiens
[25] = biological target: T4, Ubiquitin-like modifier-activating enzyme ATG7 (Homo sapiens, UniProt O95352); experiment: Inhibition of ATG7 (unknown origin) in presence of ATP
T4 sequence (O95352 whole entry): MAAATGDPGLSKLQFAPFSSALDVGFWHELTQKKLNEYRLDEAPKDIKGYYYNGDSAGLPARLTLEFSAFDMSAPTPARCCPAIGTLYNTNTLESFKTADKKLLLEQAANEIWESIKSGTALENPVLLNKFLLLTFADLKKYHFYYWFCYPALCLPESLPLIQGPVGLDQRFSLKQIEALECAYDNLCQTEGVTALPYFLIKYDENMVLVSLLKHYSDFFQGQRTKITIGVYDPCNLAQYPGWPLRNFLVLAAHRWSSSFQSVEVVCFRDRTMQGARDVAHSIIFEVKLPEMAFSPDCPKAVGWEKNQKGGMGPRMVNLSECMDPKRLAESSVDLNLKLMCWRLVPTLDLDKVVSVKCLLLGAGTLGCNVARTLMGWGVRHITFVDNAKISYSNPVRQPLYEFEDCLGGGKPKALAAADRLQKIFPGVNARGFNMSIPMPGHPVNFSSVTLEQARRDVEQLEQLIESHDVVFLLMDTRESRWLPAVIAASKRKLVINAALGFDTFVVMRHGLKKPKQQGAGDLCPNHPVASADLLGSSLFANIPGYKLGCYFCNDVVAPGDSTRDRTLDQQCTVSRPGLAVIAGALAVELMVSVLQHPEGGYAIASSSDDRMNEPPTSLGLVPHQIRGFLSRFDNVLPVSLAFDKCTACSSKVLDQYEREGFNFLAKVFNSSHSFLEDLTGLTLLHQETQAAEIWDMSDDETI

[26] = Competitive inhibition of human UAE-catalyzed ATP-PPi exchange reaction expressed in Sf9 insect cells after 60 mins in presence of 10 uM ATP
[27] = Competitive inhibition of human UAE-catalyzed ATP-PPi exchange reaction expressed in Sf9 insect cells after 60 mins in presence of 1 mM ATP

Structure (SMILES): O=C1NN(c2ccc(F)c(Cl)c2)C(=O)/C1=C\c1ccc([N+](=O)[O-])o1
CC50 [1]: 15 µM
CC50 [2]: 15 µM
CC50 [3]: 15 µM
CC50 [4]: 15 µM
CC50 [5]: ≤ 3 µM
IC50 [6]: 20 µM
CC50 [7]: ≤ 3 µM
CC50 [8]: < 10 µM
CC50 [9]: 15 µM
CC50 [10]: 15 µM
CC50 [11]: ≤ 3 µM
CC50 [12]: 15 µM
CC50 [13]: 15 µM

Structure (SMILES): CCCCCCCCCCNCCSSCc1ccc(Cl)cc1
IC50 [14]: 9 µM
IC50 [15]: 13 µM

Structure (SMILES): CCOC(=O)N1CCN(/[N+]([O-])=N/Oc2ccc([N+](=O)[O-])cc2[N+](=O)[O-])CC1
IC50 [16]: 2 µM

IC50 [17]: 17 µg/mL (≈ 40.4 µM)
Structure (SMILES): CC(C)(O)/C=C/[C@@]12[C@H]3[C@@H](O)[C@@H]4O[C@@H]4[C@]1(O)OC(C)(C)[C@@H]2C=C1C(=O)[C@H]2O[C@H]2[C@H](O)[C@H]13 [PANEPOPHENANTHRIN]

Structure (SMILES): CCOC(=O)c1ccc(N2NC(=O)/C(=C/c3ccc([N+](=O)[O-])o3)C2=O)cc1
IC50 [18]: < 10 µM
IC50 [19]: < 10 µM
IC50 [15]: 6.4 µM

IC50 [21]: 4 µM
IC50 [23]: 0.92 µM
IC50 [24]: 5.2 µM
IC50 [25]: > 100 µM
Structure (SMILES): NS(=O)(=O)OC[C@H]1O[C@@H](n2cnc3c(N[C@H]4CCc5ccccc54)ncnc32)[C@H](O)[C@@H]1O
IC50 [20]: 0.0014 µM
IC50 [22]: 6.4 µM
IC50 [26]: 0.0102 µM
IC50 [27]: 5 µM

Reference: ChEMBL document CHEMBL2321716, “Exploring a new frontier in cancer treatment: targeting the ubiquitin and ubiquitin-like activating enzymes” (J Med Chem, 2013)
